Laboratory results: ChEMBL document CHEMBL1201862, “PubChem BioAssay data set” (2004)
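Interpolation was linear, between the two tested concentrations surrounding the appropriate level; five concentrations were tested over 48 hours in 96-well plates. GI50 = concentration required for 50% inhibition of growth.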 Calls of active or inactive are those of the source. Rule as the data show it: active = GI50 up to about 1.1 µM and inactive = higher.

How the values were obtained:
Assay in all cases: inhibition of tumour cell growth, NCI panel, 48 h
[1] = test system: ACHN
[2] = test system: BT-549
[3] = test system: CAKI-1
[4] = test system: CCRF-CEM
[5] = test system: EKVX
[6] = test system: HCT-116
[7] = test system: Hs-578T
[8] = test system: IGROV-1
[9] = test system: KM12
[10] = test system: MDA-MB-231
[11] = test system: MDA-N
[12] = test system: NCI-H226
[13] = test system: OVCAR-4
[14] = test system: RXF 393
[15] = test system: SK-MEL-2
[16] = test system: SN12C
[17] = test system: UO-31
[18] = test system: SNB-75
[19] = test system: SF-539

SMILES	GI50 [1]	GI50 [2]	GI50 [3]	GI50 [4]	GI50 [5]	GI50 [6]	GI50 [7]	GI50 [8]	GI50 [9]	GI50 [10]	GI50 [11]	GI50 [12]	GI50 [13]	GI50 [14]	GI50 [15]	GI50 [16]	GI50 [17]	GI50 [18]	GI50 [19]
O=[N+]([O-])c1cc(-c2ccc([As](=O)(O)O)cc2)ccc1[As](=O)(O)O	> 100 µM (inactive)	> 100 µM (inactive)	> 100 µM (inactive)	> 100 µM (inactive)	> 100 µM (inactive)	> 100 µM (inactive)	> 100 µM (inactive)	> 100 µM (inactive)	> 100 µM (inactive)	> 100 µM (inactive)	> 100 µM (inactive)	> 100 µM (inactive)	> 100 µM (inactive)	> 100 µM (inactive)	> 100 µM (inactive)	> 100 µM (inactive)	> 100 µM (inactive)	–	–
CN(C)c1ccc(C=c2c3cc(O)ccc3n3c2cc(-c2ccccc2)[n+]3C)cc1	7.78 µM (inactive)	0.383 µM (active)	8.63 µM (inactive)	0.656 µM (active)	1.96 µM (inactive)	1.39 µM (inactive)	0.333 µM (active)	0.281 µM (active)	1.06 µM (active)	1.04 µM (active)	0.67 µM (active)	1.66 µM (inactive)	3.28 µM (inactive)	1.53 µM (inactive)	1.27 µM (inactive)	0.33 µM (active)	2.93 µM (inactive)	0.468 µM (active)	–
COC(=O)C1(C)CCCC2(C)c3cc(OC)ccc3C(=O)C(Br)C12 (stereo not given)	–	> 10 µM (inactive)	4.05 µM (inactive)	2.29 µM (inactive)	> 10 µM (inactive)	2.79 µM (inactive)	> 10 µM (inactive)	> 10 µM (inactive)	> 10 µM (inactive)	3.35 µM (inactive)	3.81 µM (inactive)	> 10 µM (inactive)	–	9.23 µM (inactive)	> 10 µM (inactive)	8.61 µM (inactive)	1.84 µM (inactive)	–	> 10 µM (inactive)
COc1cc2nc(-c3ccc4ccccc4c3)nc(O)c2cc1OC	48.8 µM (inactive)	> 100 µM (inactive)	> 100 µM (inactive)	> 100 µM (inactive)	> 100 µM (inactive)	> 100 µM (inactive)	53.2 µM (inactive)	> 100 µM (inactive)	> 100 µM (inactive)	> 100 µM (inactive)	> 100 µM (inactive)	> 100 µM (inactive)	42.9 µM (inactive)	41.7 µM (inactive)	42.8 µM (inactive)	> 100 µM (inactive)	> 100 µM (inactive)	13.8 µM (inactive)	–
COC(=O)/C=C/COCC1C2CCC(=O)C21 (stereo not given)	> 100 µM (inactive)	> 100 µM (inactive)	27.4 µM (inactive)	> 100 µM (inactive)	> 100 µM (inactive)	> 100 µM (inactive)	–	> 100 µM (inactive)	> 100 µM (inactive)	> 100 µM (inactive)	> 100 µM (inactive)	> 100 µM (inactive)	> 100 µM (inactive)	> 100 µM (inactive)	> 100 µM (inactive)	> 100 µM (inactive)	> 100 µM (inactive)	> 100 µM (inactive)	> 100 µM (inactive)
Cc1ccc(C(=O)/C=C2\Nc3ccccc3S\C2=N\CS(=O)(=O)c2ccc(C)cc2)cc1	> 10 µM (inactive)	> 10 µM (inactive)	> 10 µM (inactive)	> 10 µM (inactive)	–	> 10 µM (inactive)	8.43 µM (inactive)	> 10 µM (inactive)	> 10 µM (inactive)	> 10 µM (inactive)	> 10 µM (inactive)	–	4.02 µM (inactive)	–	–	> 10 µM (inactive)	–	> 10 µM (inactive)	> 10 µM (inactive)
C/C(=N\NC(N)=O)C(CN1CCOCC1)C(c1ccccc1)c1c(O)c2ccccc2oc1=O (stereo not given)	> 100 µM (inactive)	> 100 µM (inactive)	> 100 µM (inactive)	> 100 µM (inactive)	> 100 µM (inactive)	> 100 µM (inactive)	> 100 µM (inactive)	> 100 µM (inactive)	> 100 µM (inactive)	> 100 µM (inactive)	> 100 µM (inactive)	> 100 µM (inactive)	> 100 µM (inactive)	–	> 100 µM (inactive)	–	> 100 µM (inactive)	> 100 µM (inactive)	> 100 µM (inactive)
CC1=C/C(=N/N2C(=O)/C(=C/c3ccc(Cl)cc3)N=C2c2ccccc2)CC(C)(C)C1	> 100 µM (inactive)	> 100 µM (inactive)	> 100 µM (inactive)	–	81.7 µM (inactive)	91.8 µM (inactive)	52 µM (inactive)	52.1 µM (inactive)	51.1 µM (inactive)	> 100 µM (inactive)	67.6 µM (inactive)	90.2 µM (inactive)	45.9 µM (inactive)	91.6 µM (inactive)	24.9 µM (inactive)	> 100 µM (inactive)	> 100 µM (inactive)	31.5 µM (inactive)	47.1 µM (inactive)
O=[N+]([O-])c1ccc2sc(/C=N/c3cnccn3)cc2c1	30.9 µM (inactive)	85.7 µM (inactive)	57.3 µM (inactive)	13.7 µM (inactive)	39.1 µM (inactive)	37 µM (inactive)	16.7 µM (inactive)	58.3 µM (inactive)	57.5 µM (inactive)	23.7 µM (inactive)	24.1 µM (inactive)	–	–	0.597 µM (active)	23.2 µM (inactive)	45.6 µM (inactive)	24.1 µM (inactive)	0.861 µM (active)	31.6 µM (inactive)
COc1cc(C[S+]([O-])c2ccc(O)cc2)cc(OC)c1OC (stereo not given)	> 100 µM (inactive)	> 100 µM (inactive)	> 100 µM (inactive)	> 100 µM (inactive)	> 100 µM (inactive)	> 100 µM (inactive)	> 100 µM (inactive)	> 100 µM (inactive)	> 100 µM (inactive)	> 100 µM (inactive)	> 100 µM (inactive)	> 100 µM (inactive)	–	> 100 µM (inactive)	> 100 µM (inactive)	> 100 µM (inactive)	66.2 µM (inactive)	> 100 µM (inactive)	> 100 µM (inactive)
CCCC(=O)NC1=C(NCC)C(=O)c2ccccc2C1=O	> 100 µM (inactive)	> 100 µM (inactive)	–	> 100 µM (inactive)	–	43.7 µM (inactive)	> 100 µM (inactive)	> 100 µM (inactive)	52.4 µM (inactive)	83.4 µM (inactive)	20.8 µM (inactive)	> 100 µM (inactive)	> 100 µM (inactive)	48.3 µM (inactive)	–	> 100 µM (inactive)	–	> 100 µM (inactive)	> 100 µM (inactive)
Cc1cn(CC2=NCC(C)N2)c(=O)[nH]c1=O (stereo not given)	> 100 µM (inactive)	> 100 µM (inactive)	–	–	> 100 µM (inactive)	> 100 µM (inactive)	> 100 µM (inactive)	> 100 µM (inactive)	–	> 100 µM (inactive)	> 100 µM (inactive)	> 100 µM (inactive)	–	> 100 µM (inactive)	> 100 µM (inactive)	> 100 µM (inactive)	> 100 µM (inactive)	> 100 µM (inactive)	–
CC(C)C1CC(CO)(CNc2cc(Cl)nc(N)n2)C1 (stereo not given)	> 100 µM (inactive)	65.8 µM (inactive)	> 100 µM (inactive)	75.7 µM (inactive)	7.06 µM (inactive)	41.3 µM (inactive)	25.6 µM (inactive)	> 100 µM (inactive)	> 100 µM (inactive)	94 µM (inactive)	57.7 µM (inactive)	13.5 µM (inactive)	20.7 µM (inactive)	19.7 µM (inactive)	45.9 µM (inactive)	> 100 µM (inactive)	54 µM (inactive)	–	73.8 µM (inactive)
c1cc(-c2ccsc2-c2ccsc2)cs1	> 100 µM (inactive)	81.1 µM (inactive)	> 100 µM (inactive)	50.1 µM (inactive)	> 100 µM (inactive)	52.1 µM (inactive)	59.3 µM (inactive)	> 79.3 µM (inactive)	37.3 µM (inactive)	> 100 µM (inactive)	41.3 µM (inactive)	–	> 55.3 µM (inactive)	27.4 µM (inactive)	28.5 µM (inactive)	> 86.9 µM (inactive)	> 90.6 µM (inactive)	44.5 µM (inactive)	> 100 µM (inactive)
CCN(CC)c1nnc(CCCCCCCCc2nnc(N(CC)CC)o2)o1	> 100 µM (inactive)	> 100 µM (inactive)	> 100 µM (inactive)	> 100 µM (inactive)	> 100 µM (inactive)	> 100 µM (inactive)	–	> 100 µM (inactive)	> 100 µM (inactive)	> 100 µM (inactive)	> 100 µM (inactive)	> 100 µM (inactive)	> 100 µM (inactive)	> 100 µM (inactive)	> 100 µM (inactive)	> 100 µM (inactive)	> 100 µM (inactive)	> 100 µM (inactive)	> 100 µM (inactive)
CN(c1cn(C2CC[C@@H](CO)O2)c(=O)[nH]c1=O)C1CCCCC1 (stereo not given in full)	> 100 µM (inactive)	> 100 µM (inactive)	–	> 100 µM (inactive)	–	> 100 µM (inactive)	30 µM (inactive)	> 100 µM (inactive)	> 100 µM (inactive)	> 100 µM (inactive)	> 100 µM (inactive)	> 100 µM (inactive)	> 100 µM (inactive)	> 100 µM (inactive)	–	> 100 µM (inactive)	> 100 µM (inactive)	21.9 µM (inactive)	> 100 µM (inactive)
